Data: ChEMBL document CHEMBL1147724, “Synthesis and in vitro antileukemic activity of some new 1,3-(oxytetraethylenoxy)cyclotriphosphazene derivatives” (2006)
≈ marks a conversion by molar mass, not a printed value. Calls of active or inactive are those of the source. No cut-off for these calls is given here.

Tests used:
Type in all cases: functional
MOLT-4 = test: Antiproliferative activity against human MOLT4 cell line by MTT assay at 4 ug/ml; settings: for IC50: read-out: ID50 (the source's name)
HL-60 = test: Antiproliferative activity against human HL60 cell line by MTT assay at 4 ug/ml; settings: for IC50: read-out: ID50 (the source's name)
BALB/3T3 = test: Antiproliferative activity against BALB/3T3 cell line by MTT assay at 4 ug/ml; settings: Mus musculus; for IC50: read-out: ID50 (the source's name)
P388 = test: Antiproliferative activity against mouse P388 cell line by MTT assay at 4 ug/ml; settings: for IC50: read-out: ID50 (the source's name)
L1210 = test: Antiproliferative activity against mouse L1210 cell line by MTT assay at 4 ug/ml; settings: for IC50: read-out: ID50 (the source's name)

| SMILES | IC50 (MOLT-4) [µg/mL] | IC50 (HL-60) [µg/mL] | IC50 (BALB/3T3) [µg/mL] | IC50 (P388) [µg/mL] | IC50 (L1210) [µg/mL] | ID50 (BALB/3T3) | ID50 (MOLT-4) | ID50 (HL-60) | ID50 (P388) | ID50 (L1210) |
| --- | --- | --- | --- | --- | --- | --- | --- | --- | --- | --- |
| O=C1c2ccccc2C(=O)c2c(NCCNP34=NP(Oc5ccccc5/C=N\CCCl)(=NP(Oc5ccccc5/C=N\CCCl)(Oc5ccccc5/C=N\CCCl)=N3)OCCOCCOCCOCCO4)cccc21 (stereo not given) | 3.08 (≈ 2.7 µM) | 2.07 (≈ 1.81 µM) | 9.54 (≈ 8.37 µM) | 2.16 (≈ 1.89 µM) | 2.69 (≈ 2.36 µM) | – | – | – | – | – |
| ClCC/N=C\c1ccccc1OP12=NP(Oc3ccccc3/C=N\CCCl)(Oc3ccccc3/C=N\CCCl)=NP(Oc3ccc4ccccc4c3)(=N1)OCCOCCOCCOCCO2 (stereo not given) | 3.11 (≈ 3.05 µM) | 2.89 (≈ 2.84 µM) | – | 2.7 (≈ 2.65 µM) | 2.43 (≈ 2.39 µM) | inactive | – | – | – | – |
| ClCC/N=C\c1ccccc1OP12=NP(Oc3ccccc3/C=N\CCCl)(=NP(Oc3ccccc3/C=N\CCCl)(Oc3ccccc3/C=N\CCCl)=N1)OCCOCCOCCOCCO2 (stereo not given) | 2.1 (≈ 1.99 µM) | 2.9 (≈ 2.74 µM) | 25.3 (≈ 23.9 µM) | 3.2 (≈ 3.03 µM) | 3.2 (≈ 3.03 µM) | – | – | – | – | – |
| O=C1c2ccccc2C(=O)c2c(NCCNP34=NP(NCCCl)(=NP(NCCCl)(NCCCl)=N3)OCCOCCOCCOCCO4)cccc21 (stereo not given) | 27.2 (≈ 32.8 µM) | 18.9 (≈ 22.8 µM) | – | 19.4 (≈ 23.4 µM) | 29.3 (≈ 35.4 µM) | inactive | – | – | – | – |
| O=Cc1ccccc1OP12=NP(Oc3ccccc3C=O)(Oc3ccccc3C=O)=NP(Oc3ccc4ccccc4c3)(=N1)OCCOCCOCCOCCO2 (stereo not given) | 3.09 (≈ 3.71 µM) | 2.81 (≈ 3.37 µM) | – | 2.55 (≈ 3.06 µM) | 2.75 (≈ 3.3 µM) | inactive | – | – | – | – |
| O=Cc1ccccc1OP12=NP(Oc3ccccc3C=O)(=NP(Oc3ccccc3C=O)(Oc3ccccc3C=O)=N1)OCCOCCOCCOCCO2 (stereo not given) | 3.2 (≈ 3.94 µM) | 2.7 (≈ 3.33 µM) | 12.1 (≈ 14.9 µM) | 3.2 (≈ 3.94 µM) | 3.2 (≈ 3.94 µM) | – | – | – | – | – |
| O=C1c2ccccc2C(=O)c2c(NCCNP34=NP(Cl)(=NP(Cl)(Cl)=N3)OCCOCCOCCOCCO4)cccc21 (stereo not given) | 29.6 (≈ 42.4 µM) | 38.3 (≈ 54.8 µM) | – | 32.8 (≈ 46.9 µM) | 52.8 (≈ 75.6 µM) | inactive | – | – | – | – |
| O=Cc1ccccc1OP12=NP(Oc3ccccc3C=O)(Oc3ccccc3C=O)=NP(NCCNc3cccc4c3C(=O)c3ccccc3C4=O)(=N1)OCCOCCOCCOCCO2 (stereo not given) | 1.14 (≈ 1.19 µM) | 2.23 (≈ 2.33 µM) | 33.2 (≈ 34.7 µM) | 2.9 (≈ 3.03 µM) | 2.42 (≈ 2.53 µM) | – | – | – | – | – |
| ClCCNP1(NCCCl)=NP2(NCCCl)=NP(NCCCl)(=N1)OCCOCCOCCOCCO2 (stereo not given) | – | – | – | – | – | inactive | inactive | inactive | inactive | inactive |
